Test results: patent US11229664B2, “Treatment of myelosuppression” (priority 2012, dated 2022)
Several values for one entry are separate records, joined by “and”; a condition that tells them apart may be missing. Equal entries are not always repeated. Where two headings read alike, the source gives them in different places.

Assays:
[1] = A2780 xenograft study: body weight; assay type: in vivo, athymic female mice; details: Group 3: 80 mg/kg IP QD 1, 8, 15, individual mice, 80 mg/kg
Procedure: (§1) ODSH (50 mg/mL stock concentration) was made by Pyramid Laboratories, Inc. and stored at room temperature until use. As described further below, ODSH was administered either intravenously (IV), at a dose of 48 mg/kg and volume of 10 mL/kg, or subcutaneously (SC) at a dose of 24 mg/kg and volume of 5 ml/kg. Carboplatin obtained from a clinical supplier was stored at 4° C. until use. Carboplatin was administered by intraperitoneal injection (IP) at a dose of 80 mg/kg and volume of 10 mL/kg. Saline solution (0.9% NaCl) was used as a vehicle control for ODSH and administered by the same routes and in the same volumes as ODSH.
(§2) Human ovarian cancer cell line A2780 was used in the murine xenograft experiments as follows. Approximately 5×10^6 A2780 cells were used per mouse, injected subcutaneously into the right flank in 0.1 mL of 50% Matrigel/50% media. The study was initiated when tumors reached a size of 90-130 mg. 40 mice were used, 10 per treatment regimen. The mice were normal athymic female mice, aged 6-7 weeks, housed in microisolator cages and maintained under pathogen-free conditions. Tumor and body weights were measured three times per week.
(§3) Four treatment groups were studied.

[2] = tested on: Human ovarian cancer cell line A2780; experiment: A2780 human ovarian cancer xenograft model: tumor weight; assay type: in vivo, athymic female mice; set-up: key to Mouse status printed in place of tumor weight: FD = Found Dead; TS = Terminal Sacrifice; details: for Mouse status printed in place of tumor weight: Groups 2 and 3
Procedure: as §1, §2, §3

[3] = tested on: BxPC-3 pancreas tumor cell line; experiment: BxPC-3 human pancreas tumor xenograft model: tumor weight, tumor growth inhibition (TGI); assay type: in vivo, female athymic nude mice
Procedure: Compounds tested in the experiment were as follows. ODSH was made by Pyramid Laboratories, Inc. (Costa Mesa, Calif.). ODSH was provided at a stock concentration of 50 mg/ml and stored at room temperature until use. ODSH was diluted in a 0.9% NaCl solution (B. Braun Medical Inc., Irvine, Calif.) to a concentration of 2.4 mg/ml to deliver 24 mg/kg, in a 10 ml/kg dose volume when administered intravenously. A concentration of 4.8 mg/ml was formulated to deliver a 24 mg/kg dose at a 5 ml/kg dose volume when administered subcutaneously. ODSH was formulated fresh prior to each dose.
Nab-paclitaxel was manufactured by Abraxis BioScience LLC (Bridgewater, N.J.) and diluted in a 0.9% NaCl solution to a concentration of 1.5 mg/ml to deliver 15 mg/kg, in a 10 ml/kg dose volume. All standard agent preparations were made fresh prior to their administration.
BxPC-3 cells were obtained and prepared as follows. The BxPC-3 pancreas tumor cell line was received from American Type Culture Collection (ATCC, Manassas, Va.). Cultures were maintained in RPMI 1640 medium (Hyclone, Logan, Utah) supplemented with 5% fetal bovine serum. The cells were housed in a 5% CO2 atmosphere. The cultures were expanded in tissue culture flasks at a 1:3 split ratio until a sufficient amount of cells were harvested.
BxPC-3 Human Pancreas Tumor Xenograft Model: Female athymic nude mice per treatment condition were inoculated subcutaneously in the right flank with 0.1 ml of a 50% RPMI 1640/50% Matrigel™ (BD Biosciences, Bedford, Mass.) mixture containing a suspension of BxPC-3 tumor cells (approximately 5×10^6 cells/mouse).
Study Director V.1.7.54k (Study Log).
Mean tumor growth inhibition (TGI) was calculated utilizing Formula A below (deaths were not included in the TGI calculations).
All statistical analyses in the xenograft study were performed with GraphPad Prism® v4 software.

[4] = for Deaths: N = 10 per group
Procedure: All experiments were conducted on female athymic nude mice (Hsd:Athymic Nude-Foxn1nu) supplied by Harlan (Indianapolis, Ind.). Mice were received at four weeks of age, 12-15 grams in weight, and were acclimated for seven days prior to handling. The mice were housed in microisolator cages (Lab Products, Seaford, Del.) and maintained under specific pathogen-free conditions. All procedures were carried out under appropriate institutional guidelines for animal care.
Seven days following inoculation, tumors were measured using calipers and tumor weight was calculated using the animal study management software. […] Body weights were recorded when the mice were randomized and were taken twice weekly thereafter in conjunction with tumor measurements, on each of Days 1, 4, 8, 11, 15, 18, 22, 26, 30, 33, and 36.
The study was terminated when the vehicle control reached an endpoint of 1500 mg, on Day 36.

[5] = tested on: anticoagulant activity; details: cited from earlier work
[6] = biological target: IIa (Homo sapiens, UniProt P00734+P01008); details: cited from earlier work
[7] = biological target: anti-thrombin III (Homo sapiens, UniProt P01008); details: cited from earlier work
Sequence of anti-thrombin III (P01008 33-464, species assumed): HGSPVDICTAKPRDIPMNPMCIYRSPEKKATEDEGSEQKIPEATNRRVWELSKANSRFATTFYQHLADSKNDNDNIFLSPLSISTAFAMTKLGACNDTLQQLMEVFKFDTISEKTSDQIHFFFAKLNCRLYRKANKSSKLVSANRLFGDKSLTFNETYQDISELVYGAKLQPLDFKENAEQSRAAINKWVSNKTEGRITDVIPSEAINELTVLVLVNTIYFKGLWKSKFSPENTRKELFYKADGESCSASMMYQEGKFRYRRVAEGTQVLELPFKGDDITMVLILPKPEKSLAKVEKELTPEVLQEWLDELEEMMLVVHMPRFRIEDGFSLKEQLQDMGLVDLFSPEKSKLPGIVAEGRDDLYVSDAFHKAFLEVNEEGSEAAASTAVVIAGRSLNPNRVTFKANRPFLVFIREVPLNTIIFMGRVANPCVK

[8] = biological target: Xa (Homo sapiens, UniProt P00742); details: cited from earlier work
Sequence of Xa (P01008 33-464 partner): as the sequence (P01008 33-464, species assumed) above
Sequence of Xa (P00742 235-488 limits assumed): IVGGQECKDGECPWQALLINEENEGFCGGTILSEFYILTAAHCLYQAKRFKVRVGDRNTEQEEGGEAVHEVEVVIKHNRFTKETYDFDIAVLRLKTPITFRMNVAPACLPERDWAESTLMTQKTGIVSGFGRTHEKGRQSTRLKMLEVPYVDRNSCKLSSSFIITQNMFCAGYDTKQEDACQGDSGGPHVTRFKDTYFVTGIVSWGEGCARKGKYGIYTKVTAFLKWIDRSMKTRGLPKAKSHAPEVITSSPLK

[9] = Total deaths on or before Day 26

N.N.O=C([O-])C1(C(=O)[O-])CCC1.[Pt+2] [Carboplatin, reference compound]
Individual weights, Day 1 Weight ([1]; Day 1 (baseline)): 23.2 g and 20.6 g and 22.6 g and 21.7 g and 20.7 g and 22.4 g and 19.7 g and 20.3 g and 21.6 g and 22.2 g | Day 4 Weight change ([1]; Day 4): −2.6% and −5.3% and −4.4% and −3.2% and 1.9% and −0.4% and −5.6% and −5.9% and −2.3% and −1.8% | Individual weights, Day 4 Weight ([1]; Day 4): 22.6 g and 19.5 g and 21.6 g and 21.0 g and 21.1 g (2×) and 22.3 g and 18.6 g and 19.1 g and 21.8 g | Day 6 Weight change ([1]; Day 6): −3.0% (2×) and −4.9% and 1.3% and −1.4% and 3.91% and −0.4% and −4.4% and −3.7% and −3.2% | Individual weights, Day 6 Weight ([1]; Day 6): 22.5 g and 19.6 g and 22.9 g and 21.4 g and 21.5 g (2×) and 22.3 g and 19.1 g and 19.4 g and 20.8 g | Day 8 Weight change ([1]; Day 8): 2.2% (2×) and 0.5% (2×) and 6.2% and 1.4% and 5.3% and 1.5% and −1.0% and −1.4% | Individual weights, Day 8 Weight ([1]; Day 8): 23.7 g and 20.7 g and 24.0 g and 22.0 g and 23.8 g and 22.9 g and 20.0 g and 20.1 g and 21.3 g and 22.3 g | Day 11 Weight change ([1]; Day 11): −7.3% and −4.9% and 0.9% and −5.5% and 2.4% and −3.6% and −5.1% and −6.4% and −11.1% and −7.7% | Individual weights, Day 11 Weight ([1]; Day 11): 21.5 g and 19.6 g and 22.8 g and 20.5 g (2×) and 21.2 g and 21.6 g and 18.7 g and 19.0 g and 19.2 g | Day 14 Weight change ([1]; Day 14): −2.2% and 1.0% and 2.7% and −0.5% and 9.7% and 3.1% and −1.5% and −3.0% and −10.6% and −9.5% | Individual weights, Day 14 Weight ([1]; Day 14): 22.7 g (2×) and 20.0 g and 23.2 g and 21.6 g and 23.1 g and 19.4 g and 19.7 g and 19.3 g and 20.1 g | Day 18 Weight change ([1]; Day 18): −4.3% and −1.9% and −5.8% and −10.6% and 6.3% and 4.0% and −8.6% and −7.9% and −17.1% and −9.0% | Individual weights, Day 18 Weight ([1]; Day 18): 22.2 g and 20.2 g (2×) and 21.3 g and 19.4 g and 22.0 g and 23.3 g and 18.0 g and 18.7 g and 17.9 g | Day 21 Weight change ([1]; Day 21): −0.4% and 3.9% and −4.9% and −8.3% and 13.5% and 7.1% and −8.6% (2×) and −5.4% and −15.7% | Individual weights, Day 21 Weight ([1]; Day 21): 23.1 g and 21.4 g and 21.5 g and 19.9 g and 23.5 g and 24.0 g and 18.0 g and 19.2 g and 18.2 g and 20.3 g | Day 25 Weight change ([1]; Day 25): 8.3% and −3.5% and −6.9% and −2.0% and −8.1% | Individual weights, Day 25 Weight ([1]; Day 25): 22.3 g and 21.8 g and 20.2 g and 19.9 g and 20.4 g | Day 28 Weight change ([1]; Day 28): 11.7% and −1.8% and −2.8% and 3.0% and −8.6% | Individual weights, Day 28 Weight ([1]; Day 28): 23.0 g and 22.2 g and 21.1 g and 20.9 g and 20.3 g | Tumor weight, Mean ([2]; Day 1): 107.3 mg | Tumor weight, Median ([2]; Day 1): 105.6 mg | Tumor weight, individual mice ([2]; Day 1, Mouse 1-10): 104 mg and 105 mg and 106 mg and 110 mg and 113 mg and 116 mg and 127 mg and 94 mg and 96 mg and 102 mg | Tumor weight, Mean ([2]; Day 4): 148.2 mg | Tumor weight, Median ([2]; Day 4): 144.5 mg | Tumor weight, individual mice ([2]; Day 4, Mouse 1-10): 108 mg (2×) and 175 mg and 199 mg and 142 mg and 163 mg and 147 mg and 194 mg and 137 mg and 109 mg | Tumor weight, Mean ([2]; Day 6): 213.0 mg | Tumor weight, Median ([2]; Day 6): 215.6 mg | Tumor weight, individual mice ([2]; Day 6, Mouse 1-10): 114 mg and 264 mg and 239 mg and 223 mg and 300 mg and 208 mg and 256 mg and 200 mg and 157 mg and 169 mg | Tumor weight, Mean ([2]; Day 8): 356.5 mg | Tumor weight, Median ([2]; Day 8): 364.2 mg | Tumor weight, individual mice ([2]; Day 8, Mouse 1-10): 148 mg and 466 mg and 358 mg and 371 mg and 605 mg and 306 mg and 386 mg and 419 mg and 245 mg and 262 mg | Tumor weight, Mean ([2]; Day 11): 483.1 mg | Tumor weight, Median ([2]; Day 11): 508.5 mg | Tumor weight, individual mice ([2]; Day 11, Mouse 1-10): 103 mg and 539 mg and 499 mg and 419 mg and 813 mg and 555 mg and 542 mg and 517 mg and 442 mg and 402 mg | Tumor weight, Mean ([2]; Day 14): 719.3 mg | Tumor weight, Median ([2]; Day 14): 750.3 mg | Tumor weight, individual mice ([2]; Day 14, Mouse 1-10): 96 mg and 875 mg and 799 mg and 628 mg and 1,093 mg and 795 mg and 975 mg and 587 mg and 706 mg and 640 mg | Tumor weight, Mean ([2]; Day 18): 984.1 mg | Tumor weight, Median ([2]; Day 18): 1,051.0 mg | Tumor weight, individual mice ([2]; Day 18, Mouse 1-10): 84 mg and 1,349 mg and 1,218 mg and 713 mg and 1,806 mg and 1,160 mg and 1,168 mg and 942 mg and 730 mg and 671 mg | Tumor weight, Mean ([2]; Day 21): 1,327.3 mg | Tumor weight, Median ([2]; Day 21): 1,328.6 mg | Tumor weight, individual mice ([2]; Day 21, Mouse 1-10): 112 mg and 1,790 mg and 1,596 mg and 834 mg and 2,675 mg and 1,626 mg and 1,439 mg and 1,218 mg and 941 mg and 1,040 mg | Tumor weight, Mean ([2]; Day 25): 1,761.3 mg | Tumor weight, Median ([2]; Day 25): 1,921.0 mg | Tumor weight, individual mice ([2]; Day 25, Mouse 1-10): 2,403 mg and 2,127 mg and 1,109 mg and 1,921 mg and 1,246 mg | Mouse status printed in place of tumor weight ([2]; Day 25, individual mice): TS | Tumor weight, Mean ([2]; Day 28): 2,243.0 mg | Tumor weight, Median ([2]; Day 28): 2,461.0 mg | Tumor weight, individual mice ([2]; Day 28, Mouse 1-10): 2,877 mg and 2,599 mg and 1,539 mg and 2,461 mg and 1,739 mg | Mouse status printed in place of tumor weight ([2]; Day 28, individual mice): TS

O=C1[O][Pt]2([NH][C@@H]3CCCC[C@H]3[NH]2)[O]C1=O [Oxaliplatin, reference compound]
Difference in tumor weight compared to vehicle control, Day 26 ([3]; ANOVA with Tukey's Multiple Comparison Test, BxPC-3 xenograft): No significant difference | Tumor weight, Mean ([3]; Day 26, Group 3: oxaliplatin 10 mg/kg IV wkly x4 (alone to Day 26), from Day 26 gemcitabine 80 mg/kg IP + nab-paclitaxel 15 mg/kg IV): 635.0 mg | TGI (mean tumor growth inhibition), Day 26 ([3]; Day 26 vs Day 1, compared to vehicle control, BxPC-3 xenograft, ODSH 24 mg/kg BID, oxaliplatin 10 mg/kg, gemcitabine 80 mg/kg (Table 1)): 8.0% | Day 26 Tumor Weight ([3]; Table 14, treatment administered until Day 26): 635.0 ± 52.3 mg | Average Weight ([4]; Day 1): 20.82 g | % Weight Loss or Gain ([4]; Day 4): −2.02% | % Weight Loss or Gain ([4]; Day 8): −0.82% | Average Weight ([4]; Day 11): 20.12 g | % Weight Loss or Gain ([4]; Day 15): −0.05% | Average Weight ([4]; Day 15): 20.81 g | % Weight Loss or Gain ([4]; Day 18): −1.78% | Deaths [4, 9]: 0 | Starting Weight ([4]; group mean body weight at start, dose, schedule and route per group as in table): 20.82 g | Mice with bruising on the tails or abdomen (site of injection) ([4]; ten mice per group, BxPC-3 xenograft study): One mouse

unfractionated heparin
Anticoagulant activity, USP anticoagulant assay [5]: 165-190 U/mg | anti-IIa activity [6]: 165-190 U/mg | Kd, affinity for anti-thrombin III [7]: 22 µg/mL | Kd ([7]; read-out: Kd, affinity for anti-thrombin III): 1.56 µM | anti-Xa activity [8]: 165-190 U/mg

Nc1ccn([C@@H]2O[C@H](CO)[C@@H](O)C2(F)F)c(=O)n1 [Gemcitabine]
Deaths [4, 9]: 0 | Deaths ([4]; Total deaths on or before Day 36): 0 | Day by which the mice recovered their weight ([4]; mouse, in vivo): ≤ 18 days | Day on which maximum weight loss was reached ([4]; mouse, in vivo): 11 days | Maximum weight loss ([4]; mouse, in vivo): 8.7% | Starting Weight ([4]; mouse, in vivo): 22.48 g
